Assay results from ChEMBL document CHEMBL1201862, “PubChem BioAssay data set” (2004).
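Interpolation was linear, between the two tested concentrations surrounding the appropriate level; five concentrations were tested over 48 hours in 96-well plates. Abbreviation: GI50, concentration required for 50% inhibition of growth.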 The source made the active and inactive calls. No stated cut-off is given here; in the data, active = GI50 up to about 1.1 µM and inactive = higher.

Assays:
Assay in all cases: inhibition of tumour cell growth, NCI panel, 48 h
786-0 = system: 786-0
ACHN = system: ACHN
CAKI-1 = system: CAKI-1
CCRF-CEM = system: CCRF-CEM
HCT-116 = system: HCT-116
IGROV-1 = system: IGROV-1
K562 = system: K562
NCI-H23 = system: NCI-H23
OVCAR-3 = system: OVCAR-3
OVCAR-8 = system: OVCAR-8
RXF 393 = system: RXF 393
SK-MEL-28 = system: SK-MEL-28
SK-MEL-5 = system: SK-MEL-5
SNB-19 = system: SNB-19
SNB-75 = system: SNB-75
SW-620 = system: SW-620
DU-145 = system: DU-145
MCF7 = system: MCF7

Measured: GI50

COC(=O)C(C(=O)C(=O)Nc1ccccc1C(C)=O)c1nc2ccc(Cl)cc2nc1O (stereo not given)
inactive: 786-0 > 100 µM | ACHN > 100 µM | CAKI-1 > 100 µM | CCRF-CEM > 100 µM | HCT-116 > 100 µM | IGROV-1 > 100 µM | K562 > 100 µM | NCI-H23 > 100 µM | OVCAR-3 > 100 µM | OVCAR-8 > 100 µM | RXF 393 89.7 µM | SK-MEL-28 > 100 µM | SK-MEL-5 > 100 µM | SNB-19 > 100 µM | SNB-75 99.5 µM | SW-620 > 100 µM

O=c1[nH]c2ccccc2cc1C(Cl)=C(Cl)Cl
inactive: 786-0 > 100 µM | ACHN > 100 µM | CAKI-1 > 100 µM | CCRF-CEM > 100 µM | HCT-116 > 100 µM | IGROV-1 > 100 µM | K562 > 100 µM | NCI-H23 > 100 µM | OVCAR-3 > 100 µM | OVCAR-8 > 100 µM | RXF 393 > 100 µM | SK-MEL-28 > 100 µM | SNB-19 > 100 µM | SNB-75 35.2 µM | SW-620 > 100 µM

CCOc1ccccc1/N=N/c1c(-c2ccccc2)nn(C(=O)CC(=O)Nc2cccc(Cl)c2)c1-c1ccccc1
inactive: 786-0 89.1 µM | ACHN 18.7 µM | CAKI-1 43.1 µM | CCRF-CEM 37.8 µM | HCT-116 35.1 µM | IGROV-1 68.9 µM | K562 32.2 µM | NCI-H23 61.8 µM | OVCAR-3 24.7 µM | OVCAR-8 63.5 µM | RXF 393 95.7 µM | SK-MEL-28 31.9 µM | SK-MEL-5 52.2 µM | SNB-19 68.9 µM | SNB-75 33.8 µM | SW-620 > 100 µM

CCN(CC)CCOc1ccc(CCc2cc(OC)c(OC)c(OC)c2)cc1
inactive: 786-0 37.1 µM | ACHN 50.4 µM | CAKI-1 53.2 µM | CCRF-CEM 64.1 µM | HCT-116 32.5 µM | IGROV-1 > 100 µM | K562 27.8 µM | OVCAR-3 45.7 µM | OVCAR-8 67.9 µM | RXF 393 34.9 µM | SK-MEL-28 78 µM | SK-MEL-5 15.6 µM | SNB-19 > 100 µM | SNB-75 31.3 µM | SW-620 18.4 µM

Cc1ccc(N2C(=O)C3C=CC(n4[nH]c(=O)n(Cc5ccccc5)c4=O)CC3C2=O)cc1 (stereo not given)
inactive: 786-0 > 100 µM | ACHN > 100 µM | CAKI-1 > 100 µM | CCRF-CEM > 100 µM | HCT-116 > 100 µM | IGROV-1 > 100 µM | K562 > 100 µM | NCI-H23 > 100 µM | OVCAR-3 > 100 µM | OVCAR-8 > 100 µM | RXF 393 > 100 µM | SK-MEL-28 > 100 µM | SK-MEL-5 > 100 µM | SNB-19 > 100 µM | SNB-75 74.6 µM | SW-620 > 100 µM

Oc1nc(-c2ccccc2)cc(-c2ccccc2O)n1
inactive: 786-0 > 100 µM | ACHN 67.6 µM | CAKI-1 76.2 µM | CCRF-CEM > 100 µM | HCT-116 83.4 µM | IGROV-1 > 100 µM | K562 > 100 µM | NCI-H23 > 100 µM | OVCAR-3 98.2 µM | OVCAR-8 > 100 µM | RXF 393 86.5 µM | SK-MEL-28 > 100 µM | SNB-19 58.2 µM | SNB-75 43.9 µM | SW-620 > 100 µM

Oc1ccc2occ3c2c1CCC3
inactive: 786-0 > 100 µM | ACHN > 100 µM | CAKI-1 > 100 µM | CCRF-CEM > 100 µM | HCT-116 > 100 µM | IGROV-1 > 100 µM | K562 65.8 µM | NCI-H23 > 100 µM | OVCAR-3 64.1 µM | OVCAR-8 > 100 µM | RXF 393 75.2 µM | SK-MEL-28 > 100 µM | SK-MEL-5 > 100 µM | SNB-19 > 100 µM | SNB-75 > 100 µM | SW-620 > 100 µM

N/C(=N\O)N/N=C/c1ccc(O)c(O)c1
inactive: 786-0 > 100 µM | ACHN > 100 µM | CAKI-1 > 100 µM | CCRF-CEM > 100 µM | HCT-116 > 100 µM | IGROV-1 > 100 µM | K562 44.9 µM | NCI-H23 > 100 µM | OVCAR-3 > 100 µM | OVCAR-8 > 100 µM | RXF 393 > 100 µM | SK-MEL-28 > 100 µM | SK-MEL-5 > 100 µM | SNB-19 > 100 µM | SNB-75 > 100 µM | SW-620 > 100 µM

Clc1ccc2c(Cl)ncnc2c1I
inactive: 786-0 > 100 µM | ACHN > 10 µM | CAKI-1 64 µM | CCRF-CEM > 10 µM | HCT-116 76.4 µM | IGROV-1 52.5 µM | K562 30.5 µM | NCI-H23 > 100 µM | OVCAR-3 > 100 µM | OVCAR-8 > 100 µM | RXF 393 42 µM | SK-MEL-28 > 100 µM | SK-MEL-5 > 100 µM | SNB-19 > 100 µM | SNB-75 14.6 µM | SW-620 80 µM

CCN(CC)C(c1ccc(N(C)C)cc1)C(c1ccc(N(C)C)cc1)N(CC)CC (stereo not given)
inactive: 786-0 61.2 µM | ACHN 47 µM | CAKI-1 25.9 µM | CCRF-CEM 26 µM | HCT-116 35.2 µM | IGROV-1 47.6 µM | K562 15.8 µM | NCI-H23 48.3 µM | OVCAR-3 21.5 µM | OVCAR-8 > 72.9 µM | RXF 393 25.9 µM | SK-MEL-28 26.4 µM | SK-MEL-5 16.8 µM | SNB-19 62.8 µM | SNB-75 14.2 µM | SW-620 21.4 µM

COC(=O)CCN(CCC(=O)OC)C1CC1
inactive: 786-0 > 100 µM | ACHN > 100 µM | CCRF-CEM > 100 µM | DU-145 > 100 µM | HCT-116 > 100 µM | IGROV-1 > 100 µM | K562 > 100 µM | MCF7 > 100 µM | NCI-H23 > 100 µM | OVCAR-8 > 100 µM | RXF 393 > 100 µM | SK-MEL-28 > 100 µM | SK-MEL-5 > 100 µM | SNB-19 > 100 µM | SNB-75 > 100 µM | SW-620 > 100 µM

O=C(CCCNC(=O)OCc1ccccc1)OCc1ccc2c(c1)C(=O)c1ccccc1C2=O
inactive: 786-0 25.3 µM | ACHN > 100 µM | CAKI-1 > 56.8 µM | CCRF-CEM > 100 µM | HCT-116 > 100 µM | IGROV-1 48.9 µM | K562 > 100 µM | NCI-H23 45.6 µM | OVCAR-3 > 100 µM | OVCAR-8 47.9 µM | RXF 393 22.2 µM | SK-MEL-28 > 100 µM | SK-MEL-5 > 30.7 µM | SNB-19 51.4 µM | SNB-75 20 µM | SW-620 > 100 µM

CCCCCCCCCCCCCCCC/C(C(=O)OC)=C(/O)C(=O)OCC
inactive: 786-0 > 100 µM | ACHN 70.5 µM | CAKI-1 > 100 µM | CCRF-CEM > 100 µM | HCT-116 > 100 µM | IGROV-1 > 100 µM | K562 > 100 µM | NCI-H23 > 100 µM | OVCAR-3 > 100 µM | OVCAR-8 > 100 µM | RXF 393 > 100 µM | SK-MEL-28 > 100 µM | SK-MEL-5 > 100 µM | SNB-19 > 100 µM | SNB-75 55 µM | SW-620 > 100 µM
